Measurements published in ChEMBL document CHEMBL5500347, “An update on antibacterial AlkylGuanidino Ureas: Design of new derivatives, synergism with colistin and data analysis of the whole library” (2024).
In brackets after ≈: the same amount, converted by molar mass. Activity calls are given as the source filed them. No cut-off for these calls is given here.

Legend:
Escherichia coli [1] = experiment: Antibacterial activity against Escherichia coli CCUGT incubated for 18 to 24 hrs by CLSI based microdilution broth method; format: functional; conditions: time 18-24 hrs
Klebsiella pneumoniae [2] = experiment: Antibacterial activity against Klebsiella pneumoniae ATCC 13833 incubated for 18 to 24 hrs by CLSI based microdilution broth method; format: functional; conditions: time 18-24 hrs
Acinetobacter baumannii [3] = experiment: Antibacterial activity against Acinetobacter baumannii ATCC 17978 incubated for 18 to 24 hrs by CLSI based microdilution broth method; format: functional; conditions: time 18-24 hrs; for MIC: Acinetobacter baumannii, ATCC 17978
Pseudomonas aeruginosa [4] = experiment: Antibacterial activity against Pseudomonas aeruginosa ATCC 27853 incubated for 18 to 24 hrs by CLSI based microdilution broth method; format: functional; conditions: time 18-24 hrs; for MIC: Pseudomonas aeruginosa, ATCC 27853
Pseudomonas aeruginosa [5] = experiment: Synergistic antibacterial activity against Pseudomonas aeruginosa ATCC 27853 incubated for 18 to 24 hrs in presence of colistin by CLSI based microdilution broth method; format: functional; conditions: time 18-24 hrs
Pseudomonas aeruginosa [6] = experiment: Synergistic antibacterial activity against Pseudomonas aeruginosa ATCC 27853 assessed as potentiation fold by measuring MIC to MAC ratio incubated for 18 to 24 hrs in presence of colistin by CLSI based microdilution broth method; format: functional; conditions: time 18-24 hrs
Acinetobacter baumannii [7] = experiment: Synergistic antibacterial activity against Acinetobacter baumannii ATCC 17978 incubated for 18 to 24 hrs in presence of colistin by CLSI based microdilution broth method; format: functional; conditions: time 18-24 hrs
Acinetobacter baumannii [8] = experiment: Synergistic antibacterial activity against Acinetobacter baumannii ATCC 17978 assessed as potentiation fold by measuring MIC to MAC ratio incubated for 18 to 24 hrs in presence of colistin by CLSI based microdilution broth method; format: functional; conditions: time 18-24 hrs
Acinetobacter baumannii [9] = experiment: Antibacterial activity against Acinetobacter baumannii N50 incubated for 18 to 24 hrs by CLSI based microdilution broth method; format: functional; conditions: time 18-24 hrs
Acinetobacter baumannii [10] = experiment: Synergistic antibacterial activity against Acinetobacter baumannii N50 incubated for 18 to 24 hrs in presence of colistin by CLSI based microdilution broth method; format: functional; conditions: time 18-24 hrs
Acinetobacter baumannii [11] = experiment: Synergistic antibacterial activity against Acinetobacter baumannii N50 assessed as potentiation fold by measuring MIC to MAC ratio incubated for 18 to 24 hrs in presence of colistin by CLSI based microdilution broth method; format: functional; conditions: time 18-24 hrs
Escherichia coli [12] = experiment: Synergistic antibacterial activity against Escherichia coli CCUGT incubated for 18 to 24 hrs in presence of colistin by CLSI based microdilution broth method; format: functional; conditions: time 18-24 hrs
Escherichia coli [13] = experiment: Synergistic antibacterial activity against Escherichia coli CCUGT assessed as potentiation fold by measuring MIC to MAC ratio incubated for 18 to 24 hrs in presence of colistin by CLSI based microdilution broth method; format: functional; conditions: time 18-24 hrs
Klebsiella pneumoniae [14] = experiment: Synergistic antibacterial activity against Klebsiella pneumoniae ATCC 13833 incubated for 18 to 24 hrs in presence of colistin by CLSI based microdilution broth method; format: functional; conditions: time 18-24 hrs
Klebsiella pneumoniae [15] = experiment: Synergistic antibacterial activity against Klebsiella pneumoniae ATCC 13833 assessed as potentiation fold by measuring MIC to MAC ratio incubated for 18 to 24 hrs in presence of colistin by CLSI based microdilution broth method; format: functional; conditions: time 18-24 hrs
Bacillus subtilis [16] = experiment: Antibacterial activity against Bacillus subtilis ATCC 6633 at 256 ug/ml incubated for 18 to 24 hrs by CLSI based microdilution broth method; format: functional, organism-based; conditions: dose 256.0 µg/ml, time 18-24 hrs
Enterococcus faecalis [17] = experiment: Antibacterial activity against Enterococcus faecalis ATCC 19433 at 256 ug/ml incubated for 18 to 24 hrs by CLSI based microdilution broth method; format: functional, organism-based; conditions: dose 256.0 µg/ml, time 18-24 hrs
Streptococcus pyogenes [18] = experiment: Antibacterial activity against Streptococcus pyogenes ATCC 12344 at 256 ug/ml incubated for 18 to 24 hrs by CLSI based microdilution broth method; format: functional, organism-based; conditions: dose 256.0 µg/ml, time 18-24 hrs
Staphylococcus aureus [19] = experiment: Antibacterial activity against Staphylococcus aureus ATCC 25923 at 256 ug/ml incubated for 18 to 24 hrs by CLSI based microdilution broth method; format: functional, organism-based; conditions: dose 256.0 µg/ml, time 18-24 hrs
Escherichia coli [20] = experiment: Antibacterial activity against Escherichia coli CCUGT at 256 ug/ml incubated for 18 to 24 hrs by CLSI based microdilution broth method; format: functional, organism-based; conditions: dose 256.0 µg/ml, time 18-24 hrs
Klebsiella pneumoniae [21] = experiment: Antibacterial activity against Klebsiella pneumoniae ATCC 13833 at 256 ug/ml incubated for 18 to 24 hrs by CLSI based microdilution broth method; format: functional, organism-based; conditions: dose 256.0 µg/ml, time 18-24 hrs
Acinetobacter baumannii [22] = experiment: Antibacterial activity against Acinetobacter baumannii ATCC 17978 at 256 ug/ml incubated for 18 to 24 hrs by CLSI based microdilution broth method; format: functional, organism-based; conditions: dose 256.0 µg/ml, time 18-24 hrs
Pseudomonas aeruginosa [23] = experiment: Antibacterial activity against Pseudomonas aeruginosa ATCC 27853 at 256 ug/ml incubated for 18 to 24 hrs by CLSI based microdilution broth method; format: functional, organism-based; conditions: dose 256.0 µg/ml, time 18-24 hrs
Bacillus subtilis [24] = experiment: Antibacterial activity against Bacillus subtilis ATCC 6633 incubated for 18 to 24 hrs by CLSI based microdilution broth method; format: functional; conditions: time 18-24 hrs
Enterococcus faecalis [25] = experiment: Antibacterial activity against Enterococcus faecalis ATCC 19433 incubated for 18 to 24 hrs by CLSI based microdilution broth method; format: functional; conditions: time 18-24 hrs
Streptococcus pyogenes [26] = experiment: Antibacterial activity against Streptococcus pyogenes ATCC 12344 incubated for 18 to 24 hrs by CLSI based microdilution broth method; format: functional; conditions: time 18-24 hrs
Staphylococcus aureus [27] = experiment: Antibacterial activity against Staphylococcus aureus ATCC 25923 incubated for 18 to 24 hrs by CLSI based microdilution broth method; format: functional; conditions: time 18-24 hrs
[28] = Escherichia coli, CCUGT, read-out: MIC
[29] = Klebsiella pneumoniae, ATCC 13833, read-out: MIC

| SMILES | MIC (Escherichia coli [1]; [28]) [µg/mL] | MIC (Klebsiella pneumoniae [2]; [29]) [µg/mL] | MIC (Acinetobacter baumannii [3]) [µg/mL] | MIC (Pseudomonas aeruginosa [4]) [µg/mL] | MIC (Acinetobacter baumannii [9]) [µg/mL] | MIC (Bacillus subtilis [24]) [µg/mL] | MIC (Enterococcus faecalis [25]) [µg/mL] | MIC (Streptococcus pyogenes [26]) [µg/mL] | MAC (Pseudomonas aeruginosa [5]) [µg/mL] | Ratio (Pseudomonas aeruginosa [6]) | MAC (Acinetobacter baumannii [7]) [µg/mL] | Ratio (Acinetobacter baumannii [8]) | MAC (Acinetobacter baumannii [10]) [µg/mL] | Ratio (Acinetobacter baumannii [11]) | MAC (Escherichia coli [12]) [µg/mL] | Ratio (Escherichia coli [13]) | Activity (Escherichia coli [20]) | Activity (Klebsiella pneumoniae [21]) | Activity (Acinetobacter baumannii [22]) | Activity (Pseudomonas aeruginosa [23]) | also measured |
| --- | --- | --- | --- | --- | --- | --- | --- | --- | --- | --- | --- | --- | --- | --- | --- | --- | --- | --- | --- | --- | --- |
| N=C(N)NCCCCCCN(CCCCCCNC(=N)NCC1CC1)C(=O)N(CCCCCCNC(=N)N)CCCCCCNC(=N)NCC1CC1 | 16 (≈ 21.8 µM) | 32 (≈ 43.6 µM) | 128 (≈ 175 µM) | 256 (≈ 349 µM) | > 256 |  |  |  | 8 | 32 | 1 | 128 | >256 | 1 | 1 | 16 |  |  |  |  | MAC (Klebsiella pneumoniae [14]): 16 µg/mL; Ratio (Klebsiella pneumoniae [15]): 2 |
| [N-]=[N+]=NCCCCCCCCN(CCCCCCCCNC(c1ccccc1)(c1ccccc1)c1ccccc1)C(=O)N(CCCCCCCCN=[N+]=[N-])CCCCCCCCNC(c1ccccc1)(c1ccccc1)c1ccccc1 |  |  |  |  |  |  |  |  |  |  |  |  |  |  |  |  | inactive | inactive | inactive | inactive | Activity (Bacillus subtilis [16]): inactive; Activity (Enterococcus faecalis [17]): inactive; Activity (Streptococcus pyogenes [18]): inactive; Activity (Staphylococcus aureus [19]): inactive |
| N=C(NCCCCCCNC(N)=O)NCC1CC1.O=C(O)C(F)(F)F |  |  |  |  |  | 128 | 128 | 128 |  |  |  |  |  |  |  |  | inactive | inactive | inactive | inactive | MIC (Staphylococcus aureus [27]): 128 µg/mL |
| N=C(N)NCCCCCCCCN(CCCCCCCCNC(=N)NCC1CC1)C(=O)NC(=N)NCCCCCCCCNCCCCCCCCNC(=N)NCC1CC1 | > 256 | > 256 | > 64 | > 256 | > 64 |  |  |  | 2 | >128 | 0.125 | >256 | 0.5 | >128 | 0.5 | >512 |  |  |  |  | MAC (Klebsiella pneumoniae [14]): 1 µg/mL; Ratio (Klebsiella pneumoniae [15]): >256 |
| N=C(N)NCCCCCCCCN(CCCCCCCCN)C(=O)N(CCCCCCCCN)CCCCCCCCNC(=N)NCC1CC1 |  |  |  |  | 32 (≈ 45.3 µM) |  |  |  | 8 | 16 | 8 | 8 | 4 | 8 | 0.5 | 64 |  |  |  |  | MIC (Escherichia coli [1]): 32 µg/mL (≈ 45.3 µM); MIC (Klebsiella pneumoniae [2]): 64 µg/mL (≈ 90.5 µM); MAC (Acinetobacter baumannii [3]): 64 µg/mL; MAC (Pseudomonas aeruginosa [4]): 128 µg/mL; MAC (Klebsiella pneumoniae [14]): 32 µg/mL; Ratio (Klebsiella pneumoniae [15]): 2 |
| CCNC(=N)NCCCCCCCCNC(N)=O.O=C(O)C(F)(F)F |  |  |  |  |  | 64 | 128 | 64 |  |  |  |  |  |  |  |  | inactive | inactive | inactive | inactive | MIC (Staphylococcus aureus [27]): 32 µg/mL |

Continued, in another order:

| MIC (Escherichia coli [1]; [28]) [µg/mL] | MIC (Klebsiella pneumoniae [2]; [29]) [µg/mL] | MIC (Acinetobacter baumannii [3]) [µg/mL] | MIC (Pseudomonas aeruginosa [4]) [µg/mL] | MIC (Acinetobacter baumannii [9]) [µg/mL] | MIC (Bacillus subtilis [24]) [µg/mL] | MIC (Enterococcus faecalis [25]) [µg/mL] | MIC (Streptococcus pyogenes [26]) [µg/mL] | SMILES | MAC (Pseudomonas aeruginosa [5]) [µg/mL] | Ratio (Pseudomonas aeruginosa [6]) | MAC (Acinetobacter baumannii [7]) [µg/mL] | Ratio (Acinetobacter baumannii [8]) | MAC (Acinetobacter baumannii [10]) [µg/mL] | Ratio (Acinetobacter baumannii [11]) | MAC (Escherichia coli [12]) [µg/mL] | Ratio (Escherichia coli [13]) | Activity (Escherichia coli [20]) | Activity (Klebsiella pneumoniae [21]) | Activity (Acinetobacter baumannii [22]) | Activity (Pseudomonas aeruginosa [23]) | also measured |
| --- | --- | --- | --- | --- | --- | --- | --- | --- | --- | --- | --- | --- | --- | --- | --- | --- | --- | --- | --- | --- | --- |
| 4 (≈ 4.46 µM) | 4 (≈ 4.46 µM) | 64 (≈ 71.3 µM) | 128 (≈ 143 µM) | 64 (≈ 71.3 µM) |  |  |  | N=C(NCCCCCCCCN(CCCCCCCCNC(=N)NCC1CC1)C(=O)N(CCCCCCNC(=N)NCC1CC1)CCCCCCNC(=N)NCC1CC1)NCC1CC1 | 128 | 1 | 4 | 16 | 2 | 32 |  |  |  |  |  |  |  |
| 2 (≈ 2.35 µM) | 4 (≈ 4.71 µM) | 16 (≈ 18.8 µM) | 64 (≈ 75.4 µM) | 64 (≈ 75.4 µM) |  |  |  | CCNC(=N)NCCCCCCCCN(CCCCCCCCNC(=N)NCC)C(=O)N(CCCCCCCCNC(=N)NCC)CCCCCCCCNC(=N)NCC |  |  | 0.5 | 32 | 0.25 | 256 |  |  |  |  |  |  |  |
| 8 (≈ 10.1 µM) | 16 (≈ 20.3 µM) | 64 (≈ 81.1 µM) | 128 (≈ 162 µM) |  |  |  |  | CCNC(=N)NCCCCCCN(CCCCCCNC(=N)NCC1CC1)C(=O)N(CCCCCCNC(=N)NCC)CCCCCCNC(=N)NCC1CC1 |  |  | 4 | 16 |  |  | 8 | 1 |  |  |  |  |  |
| 32 | 32 | 64 | > 256 | 32 | 8 | 16 | 8 | O=C(O)C(F)(F)F.[N-]=[N+]=NCCCCCCCCN(CCCCCCCCNC(=N)N)C(=O)N(CCCCCCCCN=[N+]=[N-])CCCCCCCCNC(=N)N | 16 | >16 | 64 | 1 | 32 | 1 | 32 | 1 |  |  |  |  | MIC (Staphylococcus aureus [27]): 2 µg/mL; MAC (Klebsiella pneumoniae [14]): 2 µg/mL; Ratio (Klebsiella pneumoniae [15]): 16 |
|  |  |  |  |  | 128 | 128 | 64 | CNC(=N)NCCCCCCCCNC(N)=O.O=C(O)C(F)(F)F |  |  |  |  |  |  |  |  | inactive | inactive | inactive | inactive | MIC (Staphylococcus aureus [27]): 32 µg/mL |
|  |  |  |  |  | 64 | 128 | 64 | CC(C)NC(=N)NCCCCCCCCNC(N)=O.O=C(O)C(F)(F)F |  |  |  |  |  |  |  |  | inactive | inactive | inactive | inactive | MIC (Staphylococcus aureus [27]): 64 µg/mL |
